According to the NIST ThermoML archive (doi:10.1021/je049612f):

Settings: Gas, Vibrating wire viscometry

FS(F)(F)(F)(F)F [sulfur hexafluoride]
Settings | viscosity [mPa·s]
350 K, 269.03 kPa | 0.0176
350 K, 295.24 kPa | 0.0176
350 K, 332.44 kPa | 0.01761
350 K, 363.13 kPa | 0.01762
350 K, 390.5 kPa | 0.01763
350 K, 418.5 kPa | 0.01765
350 K, 450.38 kPa | 0.01765
350 K, 485.3 kPa | 0.01766
350 K, 522.75 kPa | 0.01767
350 K, 552.81 kPa | 0.01768
350 K, 579.7 kPa | 0.01769
350 K, 619.51 kPa | 0.01771
350 K, 654.26 kPa | 0.01772
350 K, 701.64 kPa | 0.01775
350 K, 739.48 kPa | 0.01775
350 K, 779.89 kPa | 0.01777
350 K, 809.98 kPa | 0.01779
350 K, 855.04 kPa | 0.0178
350 K, 900.26 kPa | 0.01782
350 K, 954.25 kPa | 0.01784
350 K, 997.88 kPa | 0.01787
350 K, 1051.5 kPa | 0.0179
350 K, 1146.2 kPa | 0.01795
350 K, 1196.5 kPa | 0.01798
350 K, 1265.4 kPa | 0.01803
350 K, 1341.2 kPa | 0.01807
350 K, 1392.7 kPa | 0.01811
350 K, 1473.1 kPa | 0.01816
350 K, 1546.1 kPa | 0.01821
350 K, 1621.8 kPa | 0.01827
350 K, 1656.3 kPa | 0.0183
350 K, 1713.2 kPa | 0.01835
350 K, 1840 kPa | 0.01844
350 K, 1888.3 kPa | 0.01849
350 K, 1964.6 kPa | 0.01856
350 K, 2005.9 kPa | 0.01861
350 K, 2043.2 kPa | 0.01864
350 K, 2108.6 kPa | 0.01871
350 K, 2309.3 kPa | 0.01893
350 K, 2394 kPa | 0.01903
350 K, 2449.2 kPa | 0.01908
350 K, 2505.1 kPa | 0.01916
350 K, 2608.1 kPa | 0.01929
350 K, 2657.7 kPa | 0.01936
350 K, 2798.4 kPa | 0.01957
350 K, 2900.4 kPa | 0.01971
350 K, 2978.2 kPa | 0.01986
350 K, 3047.1 kPa | 0.01996
350 K, 3125.3 kPa | 0.0201
350 K, 3224.5 kPa | 0.02028
350 K, 3319.6 kPa | 0.02047
350 K, 3405.3 kPa | 0.02064
350 K, 3504.4 kPa | 0.02085
350 K, 3655.4 kPa | 0.02123
350 K, 3748 kPa | 0.02146
350 K, 3869.5 kPa | 0.02179
350 K, 3987.5 kPa | 0.02211
350 K, 4143 kPa | 0.02261
350 K, 4307.3 kPa | 0.02322
350 K, 4473.2 kPa | 0.02386
350 K, 4598.1 kPa | 0.02443
350 K, 4732.9 kPa | 0.02508
350 K, 4848.3 kPa | 0.02571
350 K, 4964.3 kPa | 0.02637
350 K, 5096.1 kPa | 0.02724
350 K, 5208.7 kPa | 0.02806
350 K, 5327.4 kPa | 0.02902
350 K, 5431.3 kPa | 0.02995
350 K, 5524.2 kPa | 0.03078
350 K, 5638.8 kPa | 0.03189
350 K, 5741 kPa | 0.03299
350 K, 5850 kPa | 0.03434
350 K, 5956.2 kPa | 0.03561
350 K, 6067.6 kPa | 0.03706
350 K, 6177.6 kPa | 0.03857
350 K, 6280.8 kPa | 0.03995
350 K, 6385.1 kPa | 0.04139
350 K, 6510.8 kPa | 0.04319
350 K, 6635.4 kPa | 0.04497
350 K, 6769.6 kPa | 0.04684
350 K, 6918.8 kPa | 0.04891
350 K, 7076.5 kPa | 0.05108
350 K, 7230 kPa | 0.05306
350 K, 7408.1 kPa | 0.05532
350 K, 7592 kPa | 0.05755
350 K, 7767.3 kPa | 0.05957
350 K, 8006.2 kPa | 0.06218
350 K, 8297.4 kPa | 0.06505
350 K, 8558.7 kPa | 0.06754
350 K, 8849.5 kPa | 0.07028
350 K, 9294 kPa | 0.07399
350 K, 9823.4 kPa | 0.07814
350 K, 10614 kPa | 0.08354
350 K, 11424 kPa | 0.08869
350 K, 12301 kPa | 0.09386
375 K, 72.56 kPa | 0.01862
375 K, 103.02 kPa | 0.01864
375 K, 132.08 kPa | 0.01864
375 K, 156.74 kPa | 0.01865
375 K, 183.32 kPa | 0.01866
375 K, 219.98 kPa | 0.01868
375 K, 258.3 kPa | 0.01869
375 K, 282.8 kPa | 0.0187
375 K, 308.36 kPa | 0.01871
375 K, 342.15 kPa | 0.01871
375 K, 371.36 kPa | 0.01872
375 K, 403.52 kPa | 0.01873
375 K, 435.36 kPa | 0.01874
375 K, 464.82 kPa | 0.01875
375 K, 499.73 kPa | 0.01876
375 K, 539.14 kPa | 0.01878
375 K, 563.93 kPa | 0.01878
375 K, 612.98 kPa | 0.0188
375 K, 661.4 kPa | 0.01882
375 K, 695.12 kPa | 0.01884
375 K, 746.7 kPa | 0.01886
375 K, 805.08 kPa | 0.01888
375 K, 855.26 kPa | 0.0189
375 K, 917.96 kPa | 0.01894
375 K, 999.57 kPa | 0.01897
375 K, 1067.6 kPa | 0.01901
375 K, 1146.8 kPa | 0.01905
375 K, 1211.3 kPa | 0.01909
375 K, 1302.5 kPa | 0.01914
375 K, 1385 kPa | 0.01919
375 K, 1460.9 kPa | 0.01924
375 K, 1534.4 kPa | 0.01928
375 K, 1588.3 kPa | 0.01932
375 K, 1723.3 kPa | 0.01941
375 K, 1809.5 kPa | 0.01948
375 K, 1885.1 kPa | 0.01954
375 K, 1966.6 kPa | 0.01959
375 K, 2043 kPa | 0.01966
375 K, 2300.6 kPa | 0.0199
375 K, 2399.3 kPa | 0.01998
375 K, 2484.3 kPa | 0.02006
375 K, 2587.3 kPa | 0.02019
375 K, 2879.2 kPa | 0.02051
375 K, 3052.5 kPa | 0.02072
375 K, 3214.1 kPa | 0.02095
375 K, 3418.4 kPa | 0.02122
375 K, 3699.7 kPa | 0.02167
375 K, 3960.7 kPa | 0.02214
375 K, 4136.6 kPa | 0.02249
375 K, 4384.3 kPa | 0.02299
375 K, 4599 kPa | 0.02348
375 K, 4821 kPa | 0.02401
375 K, 5057 kPa | 0.02467
375 K, 5280.9 kPa | 0.02535
375 K, 5535.4 kPa | 0.02617
375 K, 5778.6 kPa | 0.02706
375 K, 6000.4 kPa | 0.02791
375 K, 6326.2 kPa | 0.02939
375 K, 6677.7 kPa | 0.03112
375 K, 6887.6 kPa | 0.03224
375 K, 7092.9 kPa | 0.03343
375 K, 7293.5 kPa | 0.03466
375 K, 7524.4 kPa | 0.03612
375 K, 7762.9 kPa | 0.0377
375 K, 7973.1 kPa | 0.03919
375 K, 8202 kPa | 0.04079
375 K, 8452.7 kPa | 0.04259
375 K, 8711.3 kPa | 0.04448
375 K, 8972.9 kPa | 0.04632
375 K, 9257.7 kPa | 0.04836
375 K, 9573.7 kPa | 0.05065
375 K, 9868.9 kPa | 0.05275
375 K, 10221 kPa | 0.05519
375 K, 10547 kPa | 0.05738
